The values below are quoted from earlier work in US20070037797A1, “Method of reducing the risk of adverse cardiovascular (CV) events associated with the administration of pharmaceutical agents which favor CV events” (priority 2005, published 2007).

Read-outs that look alike come from different tables or passages of the source.

For series [1] the following is noted: use at high frequency or dose.
The conditions of series [2]: FDA determination.
The conditions of series [3]: high-risk patients with diabetes mellitus, compared to placebo.
The conditions of series [4]: 25 mg/day of rofecoxib versus placebo.
The conditions of series [5]: versus the non-selective NSAID naproxen.
For series [6] the following is noted: in vivo.
Assay in series [7]: not given
This is another data set of the same source.

For series [8] the following is noted: in vivo. This is another data set of the same source.
The conditions of series [9]: Losartan 50 mg vs. captopril 50 mg three times daily, patients with heart failure.
For series [10] the following is noted: losartan vs. captopril.
For series [11] the following is noted: 10 mg dose.
The conditions of series [12]: individuals with essential hypertension.

As to `CC(=O)Nc1ccc(O)cc1` [acetaminophen], in series [1], the “risk of adverse CV events” value is given as “significant increase”. For `Cc1ccc(-c2cc(C(F)(F)F)nn2-c2ccc(S(N)(=O)=O)cc2)cc1` [celecoxib], the “risk of adverse CV events compared to placebo” value (from here on “risk … compared to placebo”) in [2] was “increased risk of adverse CV events”. Moreover, the “hazard for the composite endpoint of death from CV causes” value is, setting by setting: (200 mg twice daily compared to placebo) 2.5; (400 mg twice daily compared to placebo) 3.4. For the same molecule, the “increase in adverse CV events” value (versus placebo after a mean duration of 33 months) was 2-3 fold. For `CCOC(=O)[C@H](CCc1ccccc1)N[C@@H](C)C(=O)N1[C@H](C(=O)O)C[C@@H]2CCC[C@@H]21` [ramipril], the “relative risk reduction, combined primary outcome of myocardial infarction, stroke, and cardiovascular death” value in [3] is 25%. On to `CS(=O)(=O)c1ccc(C2=C(c3ccccc3)C(=O)OC2)cc1` [rofecoxib], for which, in [4], the “increase in the incidence of serious thrombotic adverse events” value was “approximately two”. In addition, the “increase in the incidence of myocardial infarction” value in [5] is “approximately two”. The “risk … compared to placebo” value in series [2] was “increased risk of adverse CV events”. The “selectivity for COX-2 compared with celecoxib” value with COX-2 relative to COX-1 was 10 times. `O=C(c1ccc(OCCN2CCCCC2)cc1)c1c(-c2ccc(O)cc2)sc2cc(O)ccc12` [raloxifene]: the risk of stroke entry in [6] is “increases the risk of stroke”.

Consider `CCCCC(=O)N(Cc1ccc(-c2ccccc2-c2nnn[nH]2)cc1)[C@H](C(=O)O)C(C)C` [valsartan], for which the “survival and rates of non-fatal CV events” value in [7] (patients with myocardial infarction) was “improved survival and reduced the rates of non-fatal CV events”. The “improving survival and reducing cardiovascular morbidity compared with captopril” value in [7] (target dose of 160 mg twice daily) is given as “as effective as the ACE inhibitor captopril”. `COc1ccc(OC(=O)N(CC(=O)O)Cc2ccc(OCCc3nc(-c4ccccc4)oc3C)cc2)cc1` [muraglitazar]: the “risk of myocardial infarct and stroke” value in series [8] is “increases the risk of myocardial infarct and stroke”. In the case of `CCCCc1nc(Cl)c(CO)n1Cc1ccc(-c2ccccc2-c2nn[nH]n2)cc1` [Losartan], the mortality result in series [9] was “significant reduction in mortality”. Further, in series [10], the clinical endpoints entry is on record as “no significant difference”. As to `CC(C)c1c(C(=O)Nc2ccccc2)c(-c2ccccc2)c(-c2ccc(F)cc2)n1CC[C@@H](O)C[C@@H](O)CC(=O)O` [atorvastatin], the “reduction in LDL” value in series [11] is 39%. Regarding `CCC(=O)NS(=O)(=O)c1ccc(-c2c(-c3ccccc3)noc2C)cc1` [parecoxib], the endothelial dysfunction result in series [12] was “worsening”. For the molecule `Cc1onc(-c2ccccc2)c1-c1ccc(S(N)(=O)=O)cc1` [valdecoxib], the “risk … compared to placebo” value in series [2] is “increased risk of adverse CV events”.
